What was measured:
Parameters in all cases: key: “+” indicates that the compound exibits inhibitory activity; “−” indicates that low or no inhibitory activity was observed
[1] = target: T1, E3 (His-APC11/APC2-"APC") (Homo sapiens, UniProt Q9NYG5+Q9UJX6); experiment: Plate-based E3 ligase assay (APC FLAG), auto-ubiquitination; type: biochemical; details: 8 concentrations tested
In short: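 His-APC11/APC2 auto-ubiquitination was run in casein-blocked nickel plates for 1 h at room temperature, with E1 at 5 ng/well, UbcH5c at 20 ng/well and APC at 100 ng/well. Buffer was 62.5 mM Tris pH 7.6, 3 mM MgCl2, 1 mM DTT, 2.5 mM ATP and Flag-ubiquitin at 100 ng/well. Detection used anti-Flag/HRP chemiluminescence, and IC50 was typically from 6 or 8 concentrations versus a DMSO control.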

[2] = target: E3 MDM2 (Homo sapiens, UniProt Q00987); experiment: Plate-based autoubiquitination of the E3 MDM2 (MDM2-FLAG); type: biochemical; details: 8 concentrations tested
Method: E3 (His-APC11/APC2-“APC”) auto-ubiquitination was measured as described in U.S. patent application Ser. No. 09/826,312 (Publication No. US-2002-0042083-A1), which is incorporated herein in its entirety. Details of the protocol are described below. Activity in the presence of the compound was determined relative to a parallel control in which only DMSO was added. Values of the IC50 were typically determined using 6 or 8 different concentrations of the compound, although as few as 2 concentrations may be used to approximate the IC50 value.
Nickel-coated 96-well plates (Pierce 15242) were blocked for 1 hour with 100 μl of blocking buffer at room temperature. The plates were washed 4 times with 225 μl of 1×PBS and 80 μl of the reaction buffer were added that contained 100 ng/well of Flag-ubiquitin. To this, 10 μl of the test compound diluted in DMSO were added. After the test compound was added, 10 μl of E1 (human), E2 (Ubch5c), and APC in Protein Buffer was added to obtain a final concentration of 5 ng/well of E1, 20 ng/well of E2 and 100 ng/well of APC. The plate were shaken for 10 minutes and incubated at room temperature for 1 hour. After incubation, the plates were washed 4 times with 225 μl of 1×PBS and 100 μl/well of Antibody Mix were added to each well. The plates were incubate at room temperature for another hour after which they were washed 4 times with 225 μl of 1×PBS and 100 μl/well of Lumino substrate were added to each well. The luminescence was measured by using a BMG luminescence microplate reader.
(§1) To prepare the Blocking Buffer (1 liter; 1% Casein in 1×PBS), 10 grams of Casein (Hammersten Grade Casein from Gallard-Schlesinger Inc. #440203) were placed into 1 liter of 1×PBS, stirred on a hot plate and kept between 50-60° C. for an hour. The buffer was allowed to cool to room temperature and then filtered using a Buchner Funnel (Buchner filter funnel 83 mm 30310-109) and Whatman filter paper (Whatman Grade No. 1 Filter paper 28450-070). It was stored at 4° C. until used.
(§2) The reaction buffer consisted of 62.5 mM Tris pH 7.6 (Trizma Base—Sigma T-8524), 3 mM MgCl2 (Magnesium Chloride—Sigma M-2393), 1 mM DTT (Sigma D-9779), 2.5 mM ATP (Roche Boehringer Mann Corp. 635-316), 100 ng/well of Flag-ubiquitin, 0.1% BSA (Sigma A-7906), and 0.05% Tween-20 (Sigma P-7949).
(§3) The Protein Buffer consisted of 20 mM Tris pH 7.6, 10% glycerol (Sigma G-5516) and 1 mM DTT.
(§4) The antibody mix consisted of 0.25% BSA (Sigma A-7906) in 1×PBS, 1/50,000 anti-Flag (Sigma F-3165), 1/100,000 of anti-Mouse IgG-HRP (Jackson Immunoresearch #115-035-146).
The substrate mix consisted of SuperSignal Substrate from Pierce (catalog number 37070ZZ) and was prepared by mixing 100 ml of the peroxide solution, 100 ml of the enhancer solution and 100 ml of Milli-Q® water.
In similar manner, autoubiquitination of the E3 MDM2 was determined (MDM2-FLAG). Further instruction in such assays can be found in U.S. patent application Ser. No. 10/108,767 (Publication No. US-2003-0104474 A1), which is incorporated herein in its entirety.

[3] = target: MDM2 / p53 substrate (Homo sapiens, UniProt Q00987); experiment: Plate-based MDM2 substrate ligation assay (MDM2-P53-FLAG); type: biochemical; details: 8 concentrations tested
Excerpt: This assay was preformed essentially as described in WO 03/076899 (page 77, line 5 to page 80, line 13), hereby incorporated by reference in its entirety.

[4] = system: A549 cells; experiment: Cell proliferation assay, photographic image analysis of proliferation, apoptosis and death (PAD assay), A549; type: cell-based; details: 6 concentrations tested
In short: (§5)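 Cells grown in RPMI with 5% FBS (2,000/well) and dosed 24 h after plating with 6.3-fold dilutions in duplicate (master plate 500× final, top 10 mM stock). After 48 h at 37 °C, cells formamide-fixed and DAPI-stained. Image analysis counted live, apoptotic and dead cells.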

[5] = system: HeLa cells; experiment: Cell proliferation assay, photographic image analysis of proliferation, apoptosis and death (PAD assay), HeLa; type: cell-based; details: 6 concentrations tested
In short: as §5

[6] = system: HCT116 cells; experiment: Cell proliferation assay, photographic image analysis of proliferation, apoptosis and death (PAD assay), HCT116; type: cell-based; details: 6 concentrations tested
Method: A549 (ATCC# CCL-185), HeLa (ATCC# CCL-2), HCT116 (ATCC# CCL-247), and H1299 (ATCC# CRL-5803) cells were maintained in T175 flasks following the ATCC recommended media and handling procedures. Flasks reaching approximately 70% confluency were trypsinized and resuspended in RPMI media (Cell-Gro catalog number 10-040-CM) modified to contain 5% FBS, 100 ug/mlPen/Strep (Cell-Gro catalog number 30-002-CL), and 0.3 mg/ml L-Glutamine (Cell-Gro catalog number 25-003-CL). A 20,000 cells/ml solution was made for plating. Cells were plated in black Packard 96 well plates by placing 100 μl per well (2,000 cells per well).
Compounds and additional media were added 24 hours after cell plating. A compound master plate was created with concentrations 500 times greater than the final concentration added to the cells. All compound testing was done in duplicate using 6.3 fold dilutions starting with 10 mM. All outside wells (and 4 internal wells) were DMSO controls. Taxol and at least one additional control were run on all plates. Three microliters of the compound master plate were added to deep well blocks containing 750 μl of RPMI media. One hundred microliters were transferred from the compound/media deep well blocks to the plated cells resulting in a 500 fold dilution of the compounds. Cells were grown at 37° C., 5% CO2 for 48 hours.
Cells to be analyzed by photography were fixed and stained. One hundred microliters of media were removed and 100 μl of 9.3% […] was added to each well. Plates were left on the benchtop for 45 minutes. A staining solution containing 1.55 μl of 1 mg/ml DAPI added to 18.75 ml PBS was warmed for 15 minutes at 37° C. The cells were aspirated prior to washing with 100 μl of PBS. Seventy microliters of PBS were aspirated and 170 μl of the DAPI solution were added to each well of fixed cells. Plates were left at room temperature for one hour then aspirated and washed twice with 100 μl of PBS. The stained cells were left at 4° C. for a minimum of 16 hours before photographic analysis with Array Scan II (Cellomics). Analysis of the photographic images to determine numbers of live cells (proliferation), apoptotic cells and dead cells, were according to the methods described in U.S. Provisional Patent Application Ser. No. 60/406,714, which incorporated herein in its entirety.

[7] = system: A549 cells; experiment: Non-photographic proliferation analysis (Promega Cell titer Aqueous), A549; type: cell-based; details: 6 concentrations tested
In short: (§6)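 HeLa, A549 and HCT116 cells, 2,000 per well in RPMI with 5% FBS, were given compounds 24 h after plating as 6.3-fold duplicate dilutions from 10 mM stock, diluted 500-fold into the wells. After 48 h at 37° C, 5% CO2, Cell titer Aqueous reagent was added for 45 min and absorbance read at 490 nm.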

[8] = system: HeLa cells; experiment: Non-photographic proliferation analysis (Promega Cell titer Aqueous), HeLa; type: cell-based; details: 6 concentrations tested
In short: as §6

[9] = target: T1, E3 (His-APC11/APC2-"APC"); experiment: Gel-based E3 ligase assay, auto-ubiquitination; type: biochemical
Method: E3 (His-APC11/APC2-“APC”) auto-ubiquitination was measured as described in U.S. patent application Ser. No. 09/826,312 (Publication No. U.S. Pat. No. 2,002,0042083-A1), which is incorporated herein in its entirety. Details of the protocol are described below. Activity in the presence of compound was determined relative to a parallel control in which only DMSO is added. The IC50 values were typically determined using 6 or 8 different concentrations of compound, although as few as 2 concentrations may be used to approximate the IC50 values.
Corning 96-well plates (Corning 3650) were blocked with 100 μl of Blocking Buffer for 1 hour at room temperature. The plates were washed 4 times with 225 μl of 1×PBS and 80 μl of the reaction buffer were added that contained 100 ng/well of Flag-ubiquitin. To this, 10 μl of the test compound diluted in DMSO were added. After the test compound was added, 10 μl of E1 (human), E2 (Ubch5c) and APC in Protein Buffer were added to obtain a final concentration of 5 ng/well of E1, 20 ng/well of E2 and 100 ng/well APC. The plates were shaken for 10 minutes and incubated at room temperature for 1 hour. After incubation, the reaction was stopped by adding 25 μl of loading buffer (non-reducing) per well and the plates were heated at 95° C. for 5 minutes. An aliquot of each well was run on a 10% NugePage Gel and analyzed by Western Blot using the antibody mix and Lumino substrate described below. The luminescence was measured by using a BMG luminescence microplate reader.
as §1, §2, §3, §4
The substrate mix consisted of SuperSignal Substrate from Pierce (catalog number 37070ZZ) and was prepared by mixing 100 ml of the peroxide solution, 100 ml of the enhancer solution and 100 ml of Millie water.

T1 sequence (Q9NYG5 whole entry): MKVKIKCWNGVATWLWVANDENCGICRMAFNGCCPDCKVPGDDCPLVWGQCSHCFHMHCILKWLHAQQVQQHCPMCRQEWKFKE
T1 sequence (Q9UJX6 whole entry): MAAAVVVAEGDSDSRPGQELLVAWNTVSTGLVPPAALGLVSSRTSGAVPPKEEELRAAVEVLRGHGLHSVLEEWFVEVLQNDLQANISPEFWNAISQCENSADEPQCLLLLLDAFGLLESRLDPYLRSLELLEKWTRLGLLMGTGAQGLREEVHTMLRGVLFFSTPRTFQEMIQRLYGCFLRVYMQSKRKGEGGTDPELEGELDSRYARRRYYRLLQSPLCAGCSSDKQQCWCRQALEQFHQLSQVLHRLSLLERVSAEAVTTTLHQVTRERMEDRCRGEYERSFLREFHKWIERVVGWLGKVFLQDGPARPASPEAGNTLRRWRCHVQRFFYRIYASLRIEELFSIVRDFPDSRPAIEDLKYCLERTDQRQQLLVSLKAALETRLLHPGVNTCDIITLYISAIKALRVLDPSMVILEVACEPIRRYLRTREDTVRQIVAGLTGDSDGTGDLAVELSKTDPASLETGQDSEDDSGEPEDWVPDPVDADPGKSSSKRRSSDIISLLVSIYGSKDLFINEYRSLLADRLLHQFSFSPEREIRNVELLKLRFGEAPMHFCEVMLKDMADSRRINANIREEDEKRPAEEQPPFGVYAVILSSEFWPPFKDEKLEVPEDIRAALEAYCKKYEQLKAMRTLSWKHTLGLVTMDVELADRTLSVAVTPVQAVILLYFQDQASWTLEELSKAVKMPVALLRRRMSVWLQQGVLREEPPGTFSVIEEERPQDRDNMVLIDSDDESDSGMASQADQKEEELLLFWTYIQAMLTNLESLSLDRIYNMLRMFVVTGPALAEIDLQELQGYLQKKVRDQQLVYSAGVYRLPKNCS
MDM2 / p53 substrate, sequence (Q00987 whole entry): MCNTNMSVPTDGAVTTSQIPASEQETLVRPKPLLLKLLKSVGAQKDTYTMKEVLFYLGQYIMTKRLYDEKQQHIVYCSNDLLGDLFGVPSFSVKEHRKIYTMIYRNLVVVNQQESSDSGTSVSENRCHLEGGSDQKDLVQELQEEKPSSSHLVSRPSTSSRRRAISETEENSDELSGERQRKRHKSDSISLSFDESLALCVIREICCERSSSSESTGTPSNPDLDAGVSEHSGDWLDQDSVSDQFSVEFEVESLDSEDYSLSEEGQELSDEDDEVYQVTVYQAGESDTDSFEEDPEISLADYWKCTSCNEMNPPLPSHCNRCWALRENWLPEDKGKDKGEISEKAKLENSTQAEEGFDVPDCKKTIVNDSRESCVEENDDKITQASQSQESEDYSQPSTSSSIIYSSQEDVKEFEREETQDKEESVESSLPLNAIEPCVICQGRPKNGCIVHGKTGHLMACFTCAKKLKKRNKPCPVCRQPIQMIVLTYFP
E3 MDM2, sequence (Q00987 whole entry): as above

APC Flag (gel) [9] | Compound | APC Flag 8 pt [1] | MDM2-Auto Flag 8 pt [2] | MDM2-P53 Flag 8 pt [3] | PAD Assay, A549 6 pt [4] | PAD Assay, HELA 6 pt [5] | PAD Assay, HCT116 6 pt [6] | Cell Titer-Aqueous, A549 6 pt [7] | Cell Titer-Aqueous, HELA 6 pt [8]
 | O=[N+]([O-])c1ccc(Oc2c(Cl)cc(S(=O)(=O)Nc3cc(Cl)ccc3Cl)cc2Cl)c(Cl)c1 [Compound 203, 3,5-dichloro-4-(2-chloro-4-nitrophenoxy)-N-(2,5-dichlorophenyl)benzene sulfonamide] | + | + | + | + | + | + | + | +
 | O=[N+]([O-])c1ccc(Oc2c(Cl)cc(S(=O)(=O)Nc3ccc(Cl)cc3[N+](=O)[O-])cc2Cl)c(Cl)c1 [Compound 215, 3,5-dichloro-4-(2-chloro-4-nitrophenoxy)-N-(4-chloro-2-nitrophenyl)benzene sulfonamide] | + | + | + | + | + | + | + | +
+ (gel) | O=[N+]([O-])c1ccc(Oc2c(Cl)cc(S(=O)(=O)Nc3ccc4cc[nH]c4c3)cc2Cl)c(Cl)c1 [Example 172, 3,5-dichloro-4-(2-chloro-4-nitrophenoxy)-N-1H-indol-6-ylbenzenesulfonamide] |  |  |  | + | + |  | + | +
− (gel) | CSc1ccccc1NS(=O)(=O)c1cc(Cl)c(Oc2ccc([N+](=O)[O-])cc2Cl)c(Cl)c1 [Example 191, 3,5-dichloro-4-(2-chloro-4-nitrophenoxy)-N-[2-(methylthio)phenyl]benzenesulfonamide] |  |  |  | + | + | + |  | 
− (gel) | NC(=O)c1ccccc1NS(=O)(=O)c1cc(Cl)c(Oc2ccc([N+](=O)[O-])cc2Cl)c(Cl)c1 [Example 193, 2-({[3,5-dichloro-4-(2-chloro-4-nitrophenoxy)phenyl]sulfonyl}amino)benzamide] |  |  |  |  |  |  |  | 
− (gel) | O=[N+]([O-])c1ccc(Oc2c(Cl)cc(S(=O)(=O)Nc3ccncc3)cc2Cl)c(Cl)c1 [Example 221, 3,5-dichloro-4-(2-chloro-4-nitrophenoxy)-N-pyridin-4-ylbenzenesulfonamide] |  |  |  | − | − |  | − | −
− (gel) | O=[N+]([O-])c1ccc(Oc2c(Cl)cc(S(=O)(=O)NCCc3ccc(O)cc3)cc2Cl)c(Cl)c1 [Example 223, 3,5-dichloro-4-(2-chloro-4-nitrophenoxy)-N-[2-(4-hydroxyphenyl)ethyl]benzene-sulfonamide] |  |  |  |  |  |  | − | −

— patent US7915293B2, “Ubiquitin ligase inhibitors” (Rigel Pharmaceuticals, Inc., priority 2003, dated 2011)
